# Assay results: patent US4767865A, “3'-pyridinylalkylinden- and 3'-pyridinylalkylindol-2-carboxylic acids and analogs” (The Upjohn Company, priority 1987, dated 1988)
# Where a name gives a salt, the structure may show the parent alone. Read-outs that look alike come from different tables or passages of the source.
# What was measured:
# [1] = test system: thromboxane synthetase; test: Inhibition of Thromboxane A2 biosynthesis in platelet rich plasma; format: cell-based; details: at 1 μg/ml
# Experimental: In this system, 6-(3-pyridylmethyl)indene-2-carboxylic acid inhibited thromboxane synthetase 95% as compared to control at 1 μg/ml.
# [2] = target: T1, TXA2 synthetase (Homo sapiens, UniProt P24557); test: TXA2 synthetase inhibition: TXA2 produced by mixing PGH2 and HPM, measured by response of the rabbit aorta; format: biochemical; details: test compound added to HPM 5 minutes before mixing with PGH2, approximate
# T1 construct: from tissue; host or cells: HPM (read as human platelet microsomes)
# T1 sequence (P24557 1-533): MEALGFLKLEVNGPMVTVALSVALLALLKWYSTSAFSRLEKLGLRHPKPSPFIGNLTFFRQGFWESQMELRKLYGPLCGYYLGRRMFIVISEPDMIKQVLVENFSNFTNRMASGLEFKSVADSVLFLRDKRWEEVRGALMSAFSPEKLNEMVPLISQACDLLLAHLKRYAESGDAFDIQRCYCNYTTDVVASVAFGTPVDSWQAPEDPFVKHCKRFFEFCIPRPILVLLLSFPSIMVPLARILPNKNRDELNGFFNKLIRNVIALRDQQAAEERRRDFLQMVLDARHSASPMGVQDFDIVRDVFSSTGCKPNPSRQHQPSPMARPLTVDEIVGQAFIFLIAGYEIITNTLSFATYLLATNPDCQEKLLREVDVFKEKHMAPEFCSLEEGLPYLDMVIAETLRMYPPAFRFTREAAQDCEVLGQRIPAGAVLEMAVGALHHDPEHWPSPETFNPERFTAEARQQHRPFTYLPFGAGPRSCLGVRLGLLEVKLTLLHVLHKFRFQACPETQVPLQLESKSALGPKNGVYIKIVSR
# Experimental: Potential inhibitors were tested by comparing the response of the rabbit aorta to the amount of TXA2 produced by mixing PGH2 and HPM without the test compound in the reaction medium and then the amount of TXA2 produced when the test compound was added to the HPM 5 minutes before the HPM was mixed with PGH2. […] For a discussion of TXA2 synthetase inhibition testing see, e.g., R. Gorman, supra.
IC50 ([2]; read-out: approximate ED50 (lower bound)),IC50 ([2]; read-out: approximate ED50 (upper bound)),Structure (SMILES),inhibited thromboxane synthetase as compared to control [1]
–,–,O=C(O)C1=Cc2ccc(Cc3cccnc3)cc2C1 [6-(3-Pyridylmethyl)indene-2-carboxylic Acid],95%
> 346 nM,< 3460 nM,O=C(O)c1cc2cc(NCc3cccnc3)ccc2[nH]1 [Sodium Salt],–
